Experimental data taken from US20220054513A1, “COMBINATION COMPOSITIONS COMPRISING A BETA-LACTAMASE INHIBITOR” (VenatoRx Pharmaceuticals, Inc., priority 2018, published 2022).

Test system: Acinetobacter baumannii-calcoaceticus species complex clinical isolates
Assay: MIC of triple combinations (Compound 1, sulbactam, meropenem or cefepime), 141 clinical isolates
Format: cell-based
Details: Cmpd 1 at 4 μg/mL in combinations
Source text: For a more comprehensive assessment of the ability of test compounds to potentiate sulbactam in triple combinations with β-lactams additional MIC assays were utilized.

MIC (strain 993131): 64 µg/mL
MIC (strain 994180): 2 µg/mL
MIC (strain 995771): 256 µg/mL
MIC (strain 996612): 32 µg/mL
MIC (strain 996869): >256 µg/mL
MIC (strain 997574): 256 µg/mL
MIC (strain 998107): 64 µg/mL
MIC (strain 998532): 256 µg/mL
MIC (strain 998898): 32 µg/mL
MIC (strain 998907): 16 µg/mL
MIC (strain 999306): 2 µg/mL
MIC (strain 1001007): 256 µg/mL
MIC (strain 1001611): 32 µg/mL
MIC (strain 1002208): 64 µg/mL
MIC (strain 1002952): >256 µg/mL
MIC (strain 1002960): >256 µg/mL
MIC (strain 1003557): 256 µg/mL
MIC (strain 1003787): >256 µg/mL
MIC (strain 1008508): >256 µg/mL
MIC (strain 1008510): 256 µg/mL
MIC (strain 1010245): 64 µg/mL
MIC (strain 1010331): 64 µg/mL
MIC (strain 1011959): 64 µg/mL
MIC (strain 1013022): 256 µg/mL
MIC (strain 1013035): 256 µg/mL
MIC (strain 1013055): 32 µg/mL
MIC (strain 1013322): 64 µg/mL
MIC (strain 1014143): 8 µg/mL
MIC (strain 1014646): 64 µg/mL
MIC (strain 1014815): 256 µg/mL
MIC (strain 1014866): 64 µg/mL
MIC (strain 1014870): 256 µg/mL
MIC (strain 1014878): 64 µg/mL
MIC (strain 1018109): 0.25 µg/mL
MIC (strain 1018801): 256 µg/mL
MIC (strain 1018802): 256 µg/mL
MIC (strain 1018807): 64 µg/mL
MIC (strain 1018851): 256 µg/mL
MIC (strain 1019086): 256 µg/mL
MIC (strain 1023031): >256 µg/mL
MIC (strain 1023034): 64 µg/mL
MIC (strain 1023074): 32 µg/mL
MIC (strain 1023207): 32 µg/mL
MIC (strain 1023329): 64 µg/mL
MIC (strain 1024119): 4 µg/mL
MIC (strain 1026990): 256 µg/mL
MIC (strain 1026992): 32 µg/mL
MIC (strain 1027234): 64 µg/mL
MIC (strain 1027590): 256 µg/mL
MIC (strain 1027603): 64 µg/mL
MIC (strain 1027748): 32 µg/mL
MIC (strain 1028193): >256 µg/mL
MIC (strain 1029770): >256 µg/mL
MIC (strain 1029913): 32 µg/mL
MIC (strain 1030427): 256 µg/mL
MIC (strain 1031167): 256 µg/mL
MIC (strain 1031191): 64 µg/mL
MIC (strain 1031211): 64 µg/mL
MIC (strain 1031238): 256 µg/mL
MIC (strain 1032669): 64 µg/mL
MIC (strain 1032761): 256 µg/mL
MIC (strain 1033340): 256 µg/mL
MIC (strain 1033979): 256 µg/mL
MIC (strain 1034048): 256 µg/mL
MIC (strain 1034912): 64 µg/mL
MIC (strain 1034913): 64 µg/mL
MIC (strain 1034916): 64 µg/mL
MIC (strain 1034925): 64 µg/mL
MIC (strain 1034962): 64 µg/mL
MIC (strain 1035144): 256 µg/mL
MIC (strain 1035788): 64 µg/mL
MIC (strain 1035794): 32 µg/mL
MIC (strain 1035808): 16 µg/mL
MIC (strain 1035825): 64 µg/mL
MIC (strain 1036045): 64 µg/mL
MIC (strain 1036068): 64 µg/mL
MIC (strain 1036734): 64 µg/mL
MIC (strain 1036768): 8 µg/mL
MIC (strain 1036781): >256 µg/mL
MIC (strain 1036859): 64 µg/mL
MIC (strain 1036882): 256 µg/mL
MIC (strain 1036921): 1 µg/mL
MIC (strain 1037193): >256 µg/mL
MIC (strain 1037211): 2 µg/mL
MIC (strain 1037251): 64 µg/mL
MIC (strain 1037256): 64 µg/mL
MIC (strain 1037479): 256 µg/mL
MIC (strain 1037593): 256 µg/mL
MIC (strain 1037618): 1 µg/mL
MIC (strain 1037714): 256 µg/mL
MIC (strain 1037731): 0.5 µg/mL
MIC (strain 1037732): 256 µg/mL
MIC (strain 1037738): >256 µg/mL
MIC (strain 1037747): 256 µg/mL
MIC (strain 1038418): 0.25 µg/mL
MIC (strain 1038439): 0.25 µg/mL
MIC (strain 1039502): 64 µg/mL
MIC (strain 1039518): 64 µg/mL
MIC (strain 1040900): 64 µg/mL
MIC (strain 1040901): 64 µg/mL
MIC (strain 1042182): 64 µg/mL
SMILES: C[C@@H](O)[C@H]1C(=O)N2C(C(=O)O)=C(S[C@@H]3CN[C@H](C(=O)N(C)C)C3)[C@H](C)[C@H]12 [MEM]
